This passage reports ED50 results from patent EP0167945A2, “Phenylethylaminopropiophenone derivatives, process for their preparation et medicines containing them” (Troponwerke GmbH & Co. KG, priority 1984, dated 1986).

Where a name gives a salt, the structure may show the parent alone.

Assay [1] concerns durch Tetrabenazin induzierte Ptosis. In words: Tetrabenazine antagonism (antagonism of tetrabenazine-induced ptosis). Type of assay: in vivo, Mäusen. Particulars: Mus musculus, ip; dose at which ptosis induced by 20 mg/kg i.p. Tetrabenazin is reduced by 50 %; mice; read-out: DE50 (the source's name). From the text: (§1) Die Verbindungen wurden auf anxiolytische, nootrope und antidepressive Eigenschaften geprüft. Als Leittest für die anxiolytische Wirkung diente die Antagonisierung der Fußschock-induzierten Aggressivität nach Tedeschi^1; für die antidepressive Wirkung der Antitetrabenazin^2- und Amphetaminpotenzierungstest . Beispielsweise wurden für die antidepressiven Wirkungen der erfindungsgemäßen Substanzen folgende Werte erhalten:
1) Tetrabenazin Antagonismus
Antidepressiv wirksame Substanzen antagonisieren die durch Tetrabenazin induzierte Ptosis bei Mäusen. Der DE50-Wert gibt diejenige Dosis an, bei der die durch 20 mg/kg i.p. Tetrabenazin induzierte Ptosis zu 50 % reduziert ist. Dazu seien Beispiele genannt:
• 1 Tedeschi et al., J. Pharmacol. Exp. Ther. 129, 28-34, 1959 • 2 J. L. Howard et al., in: Antidepressants: Neurochemical,.Behavioral and Clinical Perspectives, herausgegeben von S. J. Enna et al., Raven Press N. Y., S. 107-120, 1981.

Assay [2] deals with Amphetamininduzierte stereotype Verhalten. The experiment in a line: Amphetamine potentiation (potentiation of amphetamine-induced stereotyped behaviour). Format: in vivo, Ratte. The following applies: ip; dose at which behaviour induced by 2 mg/kg DL-Amphetaminsulfat i. v. is enhanced by 50 %; rat; read-out: DE50 (the source's name).
Text: as §1
2) Amphetamin-Potenzierung
Antidepressiv wirksame Substanzen potenzieren das Amphetamininduzierte stereotype Verhalten bei der Ratte.
Der angegebene DE50-Wert ist die Dosis, bei der das Amphetamininduzierte Verhalten nach Gabe von 2 mg/kg DL-Amphetaminsulfat i. v. um 50 % verstärkt ist.

As for `CC(Cc1ccccc1)NC(C)C(=O)c1cccc(Cl)c1` (stereo not shown) [Beispiel 2, 1-(3-Chlorphenyl)-2-(1-methyl-2-phenyl-ethylamino) propan-1-onhydrochlorid], the ED50 was found to be 14 mg/kg in assay [1] and 6 mg/kg in assay [2]. For the molecule `COc1ccc(CC(C)(C)NC(C)C(=O)c2cccc(Cl)c2)cc1` (stereo not shown) [Beispiel 5, 1-(3-Chlorphenyl)-2-(1,1-dimethyl-2-(4-methoxyphenyl)ethylamino)propan-1-onhydrochlorid], the ED50 in assay [1] worked out at 6.5 mg/kg. On to `CC(NC(C)(C)Cc1ccc(Cl)cc1)C(=O)c1cccc(Cl)c1` (stereo not shown) [Beispiel 3, 1-(3-Chlorphenyl)-2-(1,1-dimethyl-2-(4-chlor-phenyl)ethylamino)propan-1-onhydrochlorid], for which the ED50 amounted to 12 mg/kg in assay [1] and 9 mg/kg in assay [2]. The corresponding values for `CC(NC(C)(C)Cc1ccccc1)C(=O)c1cccc(Cl)c1` (stereo not shown) [Beispiel 1, 1-(3-Chlorphenyl)-2-(1,1-dimethyl-2-phenylethylamino)propan-1-onhydrochlorid] are 1 mg/kg and 13 mg/kg.

In the case of `CC(NC(C)(C)Cc1ccccc1)C(=O)c1ccccc1` (stereo not shown) [Beispiel 4, 1-Phenyl-2-(1,1-dimethyl-2-phenylethylamino)-propan-1-onhydrochlorid], in assay [1], the ED50 was determined as 19 mg/kg. `CC(NC(C)(C)Cc1ccccc1)C(=O)c1cccc(F)c1` (stereo not shown) [Beispiel 6, 1-(3-Fluorphenyl)-2-(1,1-dimethyl-2-phenylethylamino)propan-1-onhydrochlorid]: the ED50 in assay [1] is 6 mg/kg.

As for `CC(NC(C)(C)Cc1ccccc1)C(=O)c1cccc(C(F)(F)F)c1` (stereo not shown) [Beispiel 7, 1-(3-Trifluormethylphenyl)-2-(1,1-dimethyl-2-phenylethylamino)propan-1-onhydrochlorid], the ED50 in assay [1] worked out at 10 mg/kg.
